One test relates to MCF7 cancer cells. Put plainly: Direct cytotoxicity test of IL powders, Alamar blue assay. The note with it: 24 h of incubation. It is filed as cell-based, human. The method, then: (§1) Cytotoxicity studies on IL powders were carried out using human dermal fibroblast (HDF) cells (Sigma-Aldrich) and a human breast cancer cell line (MCF7). In addition, ILs loaded in PVC polymer substrates were tested for their cytocompatibility and adhesion properties on the HDF. HDF cells were cultured in 75 cm^2 cell culture flask in Dulbecco’s Modified Eagle’s Medium (DMEM) supplemented with 20% Foetal Bovine Serum (FBS), 1% non-essential amino acid (NEAA), antibiotic solution (streptomycin 100 µg/mL and penicillin 100 U/mL, Sigma Aldrich) and 2 mM L-glutamine. MCF7 cells were grown in DMEM with 10% FBS and the same antibiotics as mentioned above. The cells were maintained in a culture at 37 °C, with 5% CO2 and 95% humidity to achieve a confluent layer. Control cells were cultured in a complete medium without any compounds in tissue culture plates. Before biological testing, the samples were sterilised using a UV light for 2 h.
(§2) A direct cytotoxicity test was used to assess the in vitro cytotoxicity of IL powders. IL powders with different alkyl chains were dissolved in DMEM media to obtain solutions at various concentrations (0.5–1–5 and 10 µg/mL) to determine the best formulation.
(§3) After 24 h of incubation of IL solutions (200 µL) with seeded cells under specific environmental conditions (T = 37 °C, HR = 95%, CO2 = 5%), cell viability was tested using the Alamar blue assay (AbD Serotec, Milan, Italy) following the manufacturer’s instructions.
(§4) In summary, each well received a 200 µL aliquot of Alamar Blue^TM diluted 1:10 in phenol red-free medium and was incubated for 4 h at 37 °C, 5% CO2. Following this, 100 µL of the solution was transferred to a 96-well plate for colorimetric analysis. Wells with no cells were included to account for any background interference from the redox indicator. Optical density was immediately measured using a spectrophotometer (Victor X3, Perkin Elmer, Waltham, MA, USA) at 560 and 595 nm wavelengths. The results were presented as a percentage of cell viability compared to that of the control (cells grown on tissue culture plates).
(§5) Here, the antitumor activity and cytotoxicity of the synthetised imidazolium-based ionic liquids have been determined for breast cancer cells (MCF-7) and healthy human fibroblast (HDF) cells. […] Table 5 reports the IC50 values in µg/mL and µM to make their comparison with the literature data easy.
A general note: The colour change of resazurin is a common sign of viable cells or microbes.

A further test has as its system HDF cells. The test is described as above. It is filed as cell-based, human. The note with it: 24 h of incubation. The method, then:
as §1, §2, §3, §4, §5

The test system of the next test is Pseudomonas fluorescens. In words: MIC/MBC by broth dilution, pure ILs. In kind it is cell-based. The note with it: 24 h. The text has this:
(§6) Within the Di3A (Dipartimento di Agricoltura, Alimentazione e Ambiente, University of Catania, Italy) microbial collection, two Gram-negative strains (Escherichia coli and Pseudomonas fluorescens) and one Gram-positive strain (Listeria monocytogenes) were studied in order to define the potential efficacy of ionic liquids in relation to the different structure of the bacterial cell wall.
(§7) For the pure ILs, the minimal inhibitory concentration (MIC) and minimal bactericidal concentration (MBC) were determined in Nutrient Broth (NB, Oxoid, Basingstoke, UK) medium by broth dilution method, according to the Clinical and Laboratory Standards Institute (CLSI).
All the bacterial strains were individually grown for 24 h at 35 or 27 °C for P. fluorescens, with shaking. After the incubation period, the cells were collected by centrifugation and re-suspended in sterile NB to obtain a stock culture of 10^9 CFU/mL. […]
(§8) Tubes were incubated at 35 or 27 °C in an orbital shaker and evaluated for the viable count of E. coli, P. fluorescens, and L. monocytogenes after 24 h by spread-plating 100 µL of each suspension on Nutrient Agar (NA, Oxoid, Basingstoke, UK) incubated for 24–48 h at 35 or 27 °C.
(§9) In this study, MIC and MBC are expressed in both µg/mL and µM to make the comparison with the literature data easy. Each experiment was performed in triplicate.
(In general: Dilution methods test growth across graded concentrations, often in twofold steps.)

A further test deals with Listeria monocytogenes. In words: MIC/MBC by broth dilution, pure ILs. In kind it is cell-based. The note with it: 24 h.
Text: as §6, §7
(§10) All the bacterial strains were individually grown for 24 h at 35 or 27 °C for P. fluorescens, with shaking. After the incubation period, the cells were collected by centrifugation and re-suspended in sterile NB to obtain a stock culture of 10^9 CFU/mL.
(§11) Tubes containing 5 mL of NB with decreasing concentrations of ILs (1000, 500, 250, 125, 50, 25, 12.5, 5 and 0 µg/mL) were inoculated with each bacterial stock culture at a final concentration of 10^6 CFU/mL.
as §8, §9

In a further test the test system is Escherichia coli. In words: MIC/MBC by broth dilution, pure ILs. The note with it: 24 h. In kind it is cell-based.
Text: as §6, §7, §10, §11, §8, §9

Where [1] appears, read: NI = no inhibition at IL maximum concentration used (1000 µM), read-out: MIC.
[2] abbreviates: NI = no inhibition at IL maximum concentration used (1000 µM), read-out: MBC.

A word on the IC50: it is the concentration that inhibits the measured activity by half. A word on the MIC: it is the least concentration at which growth counts as inhibited. Broadly, the MBC is the smallest concentration meeting the test's criterion for killing.

Each structure is given as a SMILES string. Like-named read-outs stand apart in the source and are kept apart here. A value given as a limit tells only on which side of the number the result lay.

As for `CCCCCCCCC[n+]1ccn(C)c1.F[B-](F)(F)F` [C9mimBF4], the IC50 is above 14.8 µg/mL in the test with MCF7 cancer cells (Homo sapiens, n = 3); above 50 µM in the test with MCF7 cancer cells (Homo sapiens, n = 3, mean ± SD); 17.4 µM with HDF cells (Homo sapiens, n = 3); 5.14 ± 0.1 µg/mL in the test with HDF cells (Homo sapiens, n = 3, mean ± SD). For the same molecule, the MIC with Pseudomonas fluorescens (setting [1]) was above 1000 µM; with Listeria monocytogenes (10^6 CFU/mL, read-out: MIC) it was 148 µg/mL; in the test with Listeria monocytogenes (setting [1]), 500 µM; with Escherichia coli (10^6 CFU/mL, read-out: MIC), 296 µg/mL; with Escherichia coli (setting [1]) it was 1000 µM. For the same molecule, the MBC in the test on Listeria monocytogenes (10^6 CFU/mL, read-out: MBC) worked out at 148 µg/mL; with Listeria monocytogenes (setting [2]) it was 500 µM; in the test on Escherichia coli (10^6 CFU/mL, read-out: MBC) it was 296 µg/mL; with Escherichia coli (setting [2]), 1000 µM.
Take `CCCCCCCCCC[n+]1ccn(C)c1.COC(=O)c1cc(C(=O)OC)cc(S(=O)(=O)[O-])c1` [C10mimDMSIP]: the “IC50 MCF7” value in the test on MCF7 cancer cells (n = 3) was found to be 5.42 µg/mL. In addition, the IC50 in the test on MCF7 cancer cells (n = 3, mean ± SD) is 10.9 µM; in the test on HDF cells (n = 3) it was 11.2 µM. Moreover, the “IC50 HDF” value with HDF cells (n = 3, mean ± SD) is 5.56 ± 0.04 µg/mL. Moreover, the MBC against Pseudomonas fluorescens (10^6 CFU/mL) is listed as 496.62 µg/mL; in the test on Pseudomonas fluorescens (setting [2]) it was 1000 µM; against Listeria monocytogenes (10^6 CFU/mL), 496.62 µg/mL; with Listeria monocytogenes (setting [2]), 1000 µM; in the test on Escherichia coli (10^6 CFU/mL) it was 248.31 µg/mL; with Escherichia coli (setting [2]), 500 µM. The minimum inhibitory concentration (MIC) in the test on Pseudomonas fluorescens (10^6 CFU/mL) is listed as 248.31 µg/mL; in the test with Pseudomonas fluorescens (setting [1]), 500 µM; against Listeria monocytogenes (10^6 CFU/mL), 124.16 µg/mL; in the test with Listeria monocytogenes (setting [1]), 250 µM; with Escherichia coli (10^6 CFU/mL) it was 124.16 µg/mL; with Escherichia coli (setting [1]), 250 µM.
For `CCCCCCCCCCCCn1cc[n+](C)c1.F[B-](F)(F)F` [C12mimBF4, 1-dodecyl-3-methylimidazolium tetrafluoroborate], the IC50 was 2.05 µg/mL in the test with MCF7 cancer cells (Homo sapiens, n = 3); 6.06 µM in the test on MCF7 cancer cells (Homo sapiens, n = 3, mean ± SD); 12.8 µM in the test with HDF cells (Homo sapiens, n = 3); 4.34 ± 0.01 µg/mL with HDF cells (Homo sapiens, n = 3, mean ± SD). Besides, the MBC with Pseudomonas fluorescens (10^6 CFU/mL, read-out: MBC) was found to be 42.3 µg/mL; with Pseudomonas fluorescens (setting [2]) it was 125 µM; with Listeria monocytogenes (10^6 CFU/mL, read-out: MBC) it was 16.9 µg/mL; in the test with Listeria monocytogenes (setting [2]), 50 µM; in the test with Escherichia coli (10^6 CFU/mL, read-out: MBC), 84.6 µg/mL; in the test with Escherichia coli (setting [2]), 250 µM. In addition, the MIC amounted to 16.9 µg/mL in the test with Pseudomonas fluorescens (10^6 CFU/mL, read-out: MIC); 50 µM in the test on Pseudomonas fluorescens (setting [1]); 8.46 µg/mL in the test on Listeria monocytogenes (10^6 CFU/mL, read-out: MIC); 25 µM in the test with Listeria monocytogenes (setting [1]); 16.9 µg/mL in the test on Escherichia coli (10^6 CFU/mL, read-out: MIC); 50 µM with Escherichia coli (setting [1]).
Consider `CCCCCCCCCCCCn1cc[n+](C)c1.COC(=O)c1cc(C(=O)OC)cc(S(=O)(=O)[O-])c1` [C12mimDMSIP, 1-dodecyl-3-methylimidazolium 1,3-dimethyl-5-sulfoisophthalate], for which, in the test with MCF7 cancer cells (n = 3), the “IC50 MCF7” value amounted to 4.95 µg/mL. Besides, the IC50 was 9.44 µM in the test with MCF7 cancer cells (n = 3, mean ± SD) and 10.6 µM with HDF cells (n = 3). Moreover, the “IC50 HDF” value in the test on HDF cells (n = 3, mean ± SD) came to 5.56 ± 0.04 µg/mL. The MBC with Pseudomonas fluorescens (10^6 CFU/mL) is listed as 262.33 µg/mL; in the test with Pseudomonas fluorescens (setting [2]) it was 500 µM; against Listeria monocytogenes (10^6 CFU/mL), 26.24 µg/mL; in the test on Listeria monocytogenes (setting [2]), 50 µM; against Escherichia coli (10^6 CFU/mL), 65.58 µg/mL; with Escherichia coli (setting [2]), 125 µM. For the same molecule, the MIC in the test on Pseudomonas fluorescens (10^6 CFU/mL) was 65.58 µg/mL; in the test with Pseudomonas fluorescens (setting [1]), 125 µM; in the test on Listeria monocytogenes (10^6 CFU/mL) it was 13.12 µg/mL; in the test on Listeria monocytogenes (setting [1]), 25 µM; in the test with Escherichia coli (10^6 CFU/mL), 26.24 µg/mL; with Escherichia coli (setting [1]) it was 50 µM.
